Bridge positions count the residues as written; N and C are the ends. Square brackets hold non-standard residues; d marks the D form. Peptide text beside a SMILES is read from it. 2Nal = N[C@@H](Cc1ccc2ccccc2c1)C(=O)O; Met(O2) = CS(=O)(=O)CC[C@H](N)C(=O)O; 2Pal = N[C@@H](Cc1ccccn1)C(=O)O; Tic = O=C(O)[C@@H]1Cc2ccccc2CN1; Chg = N[C@H](C(=O)O)C1CCCCC1
Target: VLA-4-IgG chimeric protein (Homo sapiens, UniProt P05556+P13612)
Assay: Inhibition of binding of CS-1 peptide and VLA-4-IgG chimeric protein
Settings: binding of immobilized CS-1 peptide and VLA-4-IgG chimeric protein, absorbance at 490 nm
Text: As the method for investigating the adhesion inhibiting activity in terms of VLA-4, there can be used an adhesion measuring system for cells such as Ramos cells and Jurkat cells, and fibronectin or a fibronectin fragment, for example a peptide consisting of the CS-1 sequence (Gly Pro Glu Ile Leu Asp Val Pro Ser Thr SEQ ID NO:59) [hereinafter referred to as the CS-1 peptide], immobilized on an immunoplate. Furthermore, as another method, there can be used a binding measurement system for VLA-4 protein and fibronectin or a fibronectin fragment, for example the CS-1 peptide, immobilized on an immunoplate or the like. In the present invention, it is preferred that the inhibiting activity of a compound be evaluated in a binding measurement system for a VLA-4 and immunoglobulin chimeric protein (VLA-4-IgG chimeric protein) and a peptide containing the CS-1 sequence (WO98/032771), but there is no restriction thereto. Reference here to VLA-4-IgG chimeric protein means a heterodimer complex molecule formed when a VLA-4 α4 and immunoglobulin chimeric protein (referred to hereinafter as the VLAα4.IgG chimeric protein) and a VLA-4 β1 and immunoglobulin chimeric protein (referred to hereinafter as the VLAβ1.IgG chimeric protein) undergo association. Moreover, for the immunoglobulin, there can be used heavy or light chains of IgG, IgM or the like, and in the present invention IgG1 heavy chains were used. When observing the cyclic peptide inhibition effect, it is best to use a previously prepared mixture of the α4.IgG heavy chain-β1.IgG heavy chain chimeric protein heterodimer complex and the test material.
Cyclic peptide inhibiting effect in terms of the binding of CS-1 peptide and VLA-4-IgG chimeric protein.
A conjugate of the peptide containing the CS-1 sequence shown in SEQ ID NO:57 and rabbit IgG (Sigma) was prepared in accordance with the literature (Humphries, M. J. et al, J. Biol. Chem., 262, 6886-6892 (1987)). This was diluted with PBS(−), and 100 μl/well quantities introduced into a 96 well immunoplate (NUNC), after which this was left to stand for 16 hours at 4° C. and the CS-1 peptide immobilized.
Gys Lue His Gly Pro Glu Ile Leu Asp Val Pro Ser Thr (SEQ ID NO:57)
Next, after washing the interior of the wells twice with PBS(−), 300 μl/well quantities of 1% BSA-PBS solution which had been heat treated for 10 minutes at 80° C. were introduced, then left for 3 hours at 4° C., after which the solution inside the wells was removed by suction.
Each cyclic peptide and VLA-4-IgG chimeric protein (100 μl) were reacted together beforehand for 20 minutes at room temperature, and then reaction carried out for 3 hours at 30° C. with the CS-1 peptide. Subsequently, the non-bonded VLA-4-IgG chimeric protein was removed by suction, and washed away twice with TBS buffer (150 mM NaCl, 25 mM Tris-HCl, 1 mM MnCl2 pH 7.4) containing 0.1% BSA. To the bonded VLA-4-IgG chimeric protein, biotin labelled anti-human IgG antibody (Vector) as the first antibody was added, and then avidin labelled horseradish peroxidase (Sigma) was added as the second antibody and reaction carried out. Following the reaction, o-phenylenediamine was added as a substrate and colour development effected, and then the absorbance measured at 490 nm. From this absorbance, the binding inhibition activity due to the respective peptides was determined.

Sequence of VLA-4-IgG chimeric protein (P13612 34-1032, change not shown): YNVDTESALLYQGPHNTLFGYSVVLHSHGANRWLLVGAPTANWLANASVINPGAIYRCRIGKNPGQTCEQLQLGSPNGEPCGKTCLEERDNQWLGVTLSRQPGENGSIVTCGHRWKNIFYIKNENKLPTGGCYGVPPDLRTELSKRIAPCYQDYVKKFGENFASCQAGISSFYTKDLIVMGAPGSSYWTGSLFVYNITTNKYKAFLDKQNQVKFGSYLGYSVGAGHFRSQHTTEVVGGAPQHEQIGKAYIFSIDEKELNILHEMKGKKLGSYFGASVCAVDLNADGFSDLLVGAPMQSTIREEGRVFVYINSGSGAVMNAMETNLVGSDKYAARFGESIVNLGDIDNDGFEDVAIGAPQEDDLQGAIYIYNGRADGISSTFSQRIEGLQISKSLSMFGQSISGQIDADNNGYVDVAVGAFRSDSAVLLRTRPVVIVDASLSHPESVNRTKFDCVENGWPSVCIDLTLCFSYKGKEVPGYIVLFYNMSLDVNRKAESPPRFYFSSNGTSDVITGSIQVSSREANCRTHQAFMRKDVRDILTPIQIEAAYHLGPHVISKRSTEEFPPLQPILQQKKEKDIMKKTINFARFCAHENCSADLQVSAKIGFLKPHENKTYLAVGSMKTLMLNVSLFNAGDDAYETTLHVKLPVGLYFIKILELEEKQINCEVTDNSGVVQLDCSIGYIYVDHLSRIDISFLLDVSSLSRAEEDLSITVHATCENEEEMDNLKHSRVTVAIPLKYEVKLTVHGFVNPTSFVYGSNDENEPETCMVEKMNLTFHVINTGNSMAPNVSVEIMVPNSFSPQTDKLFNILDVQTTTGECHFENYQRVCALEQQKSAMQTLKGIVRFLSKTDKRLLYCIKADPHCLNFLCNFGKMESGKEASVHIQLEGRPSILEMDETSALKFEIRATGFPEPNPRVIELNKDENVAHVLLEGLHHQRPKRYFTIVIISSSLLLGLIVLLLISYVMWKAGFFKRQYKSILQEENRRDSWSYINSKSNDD
Sequence of VLA-4-IgG chimeric protein (P05556 21-798, change not shown): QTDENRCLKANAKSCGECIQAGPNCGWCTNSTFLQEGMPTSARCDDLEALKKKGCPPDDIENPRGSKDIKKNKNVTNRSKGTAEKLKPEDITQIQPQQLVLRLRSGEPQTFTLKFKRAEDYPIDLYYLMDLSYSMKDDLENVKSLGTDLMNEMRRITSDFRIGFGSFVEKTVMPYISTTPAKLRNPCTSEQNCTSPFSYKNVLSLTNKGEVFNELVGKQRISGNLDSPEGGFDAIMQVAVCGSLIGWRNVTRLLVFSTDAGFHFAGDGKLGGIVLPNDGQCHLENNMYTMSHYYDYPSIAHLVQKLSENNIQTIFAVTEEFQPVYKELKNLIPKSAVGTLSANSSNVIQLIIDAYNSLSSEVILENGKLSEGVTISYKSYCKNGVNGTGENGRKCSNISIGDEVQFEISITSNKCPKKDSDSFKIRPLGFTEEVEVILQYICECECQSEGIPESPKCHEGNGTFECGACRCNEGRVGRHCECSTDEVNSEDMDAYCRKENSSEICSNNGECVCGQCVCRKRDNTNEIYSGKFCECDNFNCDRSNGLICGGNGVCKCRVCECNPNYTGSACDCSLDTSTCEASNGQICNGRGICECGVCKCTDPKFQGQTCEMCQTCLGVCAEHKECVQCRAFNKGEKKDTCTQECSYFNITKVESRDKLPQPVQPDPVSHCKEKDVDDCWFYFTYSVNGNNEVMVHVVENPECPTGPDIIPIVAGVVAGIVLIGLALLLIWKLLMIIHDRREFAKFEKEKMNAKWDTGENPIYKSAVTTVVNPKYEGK

Structure (SMILES) | IC50 [nM]
CC[C@H](C)[C@@H]1NC(=O)[C@@H](N)CSSC[C@@H](C(=O)O)NC(=O)[C@H](CC(C)C)NC(=O)[C@H](Cc2c[nH]cn2)NC(=O)[C@H](CCC(=O)O)NC1=O [compound 9] (H-CIEHLC-OH; disulfide 1-6) | 1600
CC[C@H](C)[C@@H]1NC(=O)[C@@H](N)CSSC[C@@H](C(=O)O)NC(=O)[C@H](CC(C)C)NC(=O)[C@H](Cc2c[nH]cn2)NC(=O)[C@H](CCS(C)(=O)=O)NC1=O [compound 17] (H-CI[Met(O2)]HLC-OH; disulfide 1-6) | 800
CC(C)C[C@@H]1NC(=O)[C@H](Cc2c[nH]cn2)NC(=O)[C@H](CC(=O)O)NC(=O)[C@H](C2CCCCC2)NC(=O)[C@@H](N)CSSC[C@@H](C(=O)O)NC1=O [compound 22] (H-C[Chg]DHLC-OH; disulfide 1-6) | 120
CC(C)C[C@@H]1NC(=O)[C@H](Cc2c[nH]cn2)NC(=O)[C@H](CC(=O)O)NC(=O)[C@@H]2Cc3ccccc3CN2C(=O)[C@@H](N)CSSC[C@@H](C(=O)O)NC1=O [compound 25] (H-C[Tic]DHLC-OH; disulfide 1-6) | 650
CC[C@H](C)[C@@H]1NC(=O)[C@H](Cc2ccccc2)NC(=O)[C@H](CC(=O)O)NC(=O)[C@H]([C@@H](C)CC)NC(=O)[C@@H](N)CSSC[C@@H](C(=O)O)NC1=O [compound 48] (H-CIDFIC-OH; disulfide 1-6) | 250

Further lines, results first:

IC50 [nM] | Structure (SMILES)
1200 | CC[C@H](C)[C@@H]1NC(=O)[C@@H](N)CSSC[C@@H](C(=O)O)NC(=O)[C@H](CC(C)C)NC(=O)[C@H](Cc2c[nH]cn2)NC(=O)[C@H](CC(=O)O)NC1=O [compound 4] (H-CIDHLC-OH; disulfide 1-6)
500 | CC[C@H](C)[C@@H]1NC(=O)[C@@H](N)CSSC[C@@H](C(=O)O)NC(=O)[C@H](CC(C)C)NC(=O)[C@H](Cc2ccccn2)NC(=O)[C@H](CC(=O)O)NC1=O [compound 29] (H-CID[2Pal]LC-OH; disulfide 1-6)
450 | CC[C@H](C)[C@@H]1NC(=O)[C@@H](N)CSSC[C@@H](C(=O)O)NC(=O)[C@H](CC(C)C)NC(=O)[C@H](Cc2c[nH]c3ccccc23)NC(=O)[C@H](CC(=O)O)NC1=O [compound 31] (H-CIDWLC-OH; disulfide 1-6)
600 | CC[C@H](C)[C@@H]1NC(=O)[C@@H](N)CSSC[C@@H](C(=O)O)NC(=O)[C@H](CC(C)C)NC(=O)[C@H](Cc2ccc3ccccc3c2)NC(=O)[C@H](CC(=O)O)NC1=O [compound 34] (H-CID[2Nal]LC-OH; disulfide 1-6; N-terminus and C-terminus assumed)

Tested on: not listed separately
Assay: Stability in mouse serum
Assay type: in vitro ADME
Settings: not given

stability in mouse serum | Structure (SMILES)
stable for 24 hours | CC[C@H](C)[C@@H]1NC(=O)[C@@H](N)CSSC[C@@H](C(=O)O)NC(=O)[C@H](CC(C)C)NC(=O)[C@H](Cc2c[nH]cn2)NC(=O)[C@H](CCS(C)(=O)=O)NC1=O [Sequence Number 17, C*IMet(O2)HLC*] (H-CI[Met(O2)]HLC-OH; disulfide 1-6; N-terminus and C-terminus assumed)

— patent US6511961B1, “Cyclic peptides and medicinal use thereof” (Toray Industries, Inc., priority 1997, dated 2003)
